Data reported in patent US7887784B2, “1-[(2′-substituted)-piperazin-1′ -yl]-isoquinolines as norepinephrine transporter inhibitor therapeutics and positron emission tomography imaging agents” (University of Montana, priority 2007, dated 2011).

Experiments:
NET = molecular target: T1, NET (Rattus norvegicus, UniProt Q9WTR4); experiment: NET competitive binding assay with [3H]nisoxetine, rat brain cortical homogenates; details: partially purified rat brain cortical homogenates, 0° C., 4 h, Ki derived from IC50
T1 construct: The protocol employed partially purified rat brain cortical homogenates; from tissue; host or cells: rat brain cortex homogenate
T1 sequence (Q9WTR4 1-597): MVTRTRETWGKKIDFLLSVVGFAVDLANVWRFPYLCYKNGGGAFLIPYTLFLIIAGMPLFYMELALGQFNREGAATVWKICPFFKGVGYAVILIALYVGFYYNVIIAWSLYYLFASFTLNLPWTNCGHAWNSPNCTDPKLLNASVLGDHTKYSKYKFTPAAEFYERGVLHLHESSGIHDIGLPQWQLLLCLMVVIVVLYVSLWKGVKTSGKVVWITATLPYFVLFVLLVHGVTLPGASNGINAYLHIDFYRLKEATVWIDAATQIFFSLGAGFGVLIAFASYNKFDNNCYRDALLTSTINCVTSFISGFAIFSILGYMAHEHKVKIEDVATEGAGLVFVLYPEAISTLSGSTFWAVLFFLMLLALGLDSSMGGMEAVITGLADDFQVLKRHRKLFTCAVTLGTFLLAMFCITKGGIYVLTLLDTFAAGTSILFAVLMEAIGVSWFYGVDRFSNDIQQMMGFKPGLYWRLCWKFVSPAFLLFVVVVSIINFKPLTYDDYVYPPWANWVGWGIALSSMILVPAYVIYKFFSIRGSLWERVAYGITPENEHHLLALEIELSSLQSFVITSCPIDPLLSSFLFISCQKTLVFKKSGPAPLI
Description: The protocol employed partially purified rat brain cortical homogenates, [^3H]nisoxetine, incubated 0° C., 4 h; with nonspecific binding determined with added 1 microM of desipramine (DMI) and desipramine as the parallel positive control.

DAT = DAT (Rattus norvegicus, UniProt P23977); experiment: DAT competitive binding, [3H]B-CFT; details: partially purified rat protein, nonspecific GBR-12,909, 0° C., 2 h, read-out: Ki of (±)-14, DAT
Chain of DAT (P23977 whole entry): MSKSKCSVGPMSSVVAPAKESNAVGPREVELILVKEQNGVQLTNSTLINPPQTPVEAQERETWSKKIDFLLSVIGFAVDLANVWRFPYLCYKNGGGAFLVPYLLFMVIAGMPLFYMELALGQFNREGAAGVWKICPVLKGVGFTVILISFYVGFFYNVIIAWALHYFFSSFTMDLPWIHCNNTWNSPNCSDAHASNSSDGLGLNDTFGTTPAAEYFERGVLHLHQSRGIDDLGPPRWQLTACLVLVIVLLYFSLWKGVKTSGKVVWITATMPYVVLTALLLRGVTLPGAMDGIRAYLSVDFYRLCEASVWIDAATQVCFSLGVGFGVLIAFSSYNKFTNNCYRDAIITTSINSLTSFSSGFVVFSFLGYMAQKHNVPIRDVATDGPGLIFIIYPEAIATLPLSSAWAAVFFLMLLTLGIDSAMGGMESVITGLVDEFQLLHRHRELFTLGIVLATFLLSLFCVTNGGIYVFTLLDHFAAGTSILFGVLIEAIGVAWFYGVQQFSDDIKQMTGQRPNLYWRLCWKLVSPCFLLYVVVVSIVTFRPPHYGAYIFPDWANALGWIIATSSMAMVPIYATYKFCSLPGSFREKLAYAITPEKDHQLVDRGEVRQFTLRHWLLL
Source text: (§1) The evaluation of the competitive binding affinities (Ki values) of (±)-14 for the serotonin and dopamine transporter proteins (SERT and DAT, respectively), the beta-adrenergic receptor, and also serotonin 1a and 2a receptors has been made. The competitive binding profiles of (±)-14 at these other CNS sites are summarized in Table 2, where the assay conditions are defined. […] Thus, compound (±)-14 is considered to have potent NET selectivity (Table 1, Example X) relative to the potencies at the other sites as defined per Table 2.

5-HT2A = 5-HT2A (Homo sapiens, UniProt P28223); experiment: 5-HT2A receptor competitive binding, [3H]Ketanserin; details: partially purified human protein expressed in CHO cells, nonspecific Mianserin, 30° C., 0.5 h, read-out: Ki of (±)-14, 5-HT2A
Chain of 5-HT2A (P28223 whole entry): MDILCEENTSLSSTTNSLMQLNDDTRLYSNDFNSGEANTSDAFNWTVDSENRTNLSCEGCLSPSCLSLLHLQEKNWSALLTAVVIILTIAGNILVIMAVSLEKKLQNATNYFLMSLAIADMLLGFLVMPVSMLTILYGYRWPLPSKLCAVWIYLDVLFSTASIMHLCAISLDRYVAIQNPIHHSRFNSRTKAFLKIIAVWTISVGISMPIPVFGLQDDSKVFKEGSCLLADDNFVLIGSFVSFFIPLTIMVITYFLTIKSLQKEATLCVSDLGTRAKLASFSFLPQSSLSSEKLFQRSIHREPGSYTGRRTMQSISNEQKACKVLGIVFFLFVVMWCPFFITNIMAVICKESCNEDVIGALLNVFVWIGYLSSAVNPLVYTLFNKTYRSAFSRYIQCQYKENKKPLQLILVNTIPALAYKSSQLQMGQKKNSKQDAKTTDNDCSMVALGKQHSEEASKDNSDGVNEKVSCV
Source text: as §1

5-HT1A = molecular target: T2, 5-HT1A (Homo sapiens, UniProt P08908); experiment: 5-HT1A receptor competitive binding, [3H]8-OH-DPAT; details: partially purified human protein expressed in CHO cells, nonspecific 5-HT, 30° C., 0.5 h, read-out: Ki of (±)-14, 5-HT1A
T2 sequence (P08908 1-422): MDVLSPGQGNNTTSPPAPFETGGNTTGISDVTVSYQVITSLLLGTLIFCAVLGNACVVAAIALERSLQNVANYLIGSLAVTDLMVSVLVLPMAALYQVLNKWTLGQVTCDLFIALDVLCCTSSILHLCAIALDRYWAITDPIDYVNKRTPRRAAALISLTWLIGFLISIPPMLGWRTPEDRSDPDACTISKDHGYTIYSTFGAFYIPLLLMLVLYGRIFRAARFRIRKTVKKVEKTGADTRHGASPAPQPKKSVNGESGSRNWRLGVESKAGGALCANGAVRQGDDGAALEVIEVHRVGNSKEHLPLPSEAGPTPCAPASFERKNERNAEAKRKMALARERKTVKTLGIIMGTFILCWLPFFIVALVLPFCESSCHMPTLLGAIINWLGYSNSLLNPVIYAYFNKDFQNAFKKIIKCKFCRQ
Source text: as §1

SERT = SERT (Rattus norvegicus, UniProt P31652); experiment: SERT competitive binding, [3H]Citalopram; details: partially purified rat protein, nonspecific Clomipramine, 25° C., 1 h, read-out: Ki of (±)-14, SERT
Chain of SERT (P31652 whole entry): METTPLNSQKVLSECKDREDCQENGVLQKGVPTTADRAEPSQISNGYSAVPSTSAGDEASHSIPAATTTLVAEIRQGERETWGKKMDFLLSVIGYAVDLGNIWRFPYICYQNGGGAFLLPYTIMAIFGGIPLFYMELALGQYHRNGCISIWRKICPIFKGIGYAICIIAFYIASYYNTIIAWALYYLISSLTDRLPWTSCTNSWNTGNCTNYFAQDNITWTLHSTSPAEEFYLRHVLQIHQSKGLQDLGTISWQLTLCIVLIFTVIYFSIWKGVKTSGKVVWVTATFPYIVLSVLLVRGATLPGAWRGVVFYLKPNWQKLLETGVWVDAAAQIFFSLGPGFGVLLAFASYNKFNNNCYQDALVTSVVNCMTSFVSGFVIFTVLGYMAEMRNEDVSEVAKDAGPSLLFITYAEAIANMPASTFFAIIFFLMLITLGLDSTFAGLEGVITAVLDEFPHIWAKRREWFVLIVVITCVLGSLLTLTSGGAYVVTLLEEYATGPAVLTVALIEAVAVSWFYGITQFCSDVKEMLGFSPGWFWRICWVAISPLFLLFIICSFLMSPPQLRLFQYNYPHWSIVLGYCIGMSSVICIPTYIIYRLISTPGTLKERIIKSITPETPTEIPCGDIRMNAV
Source text: as §1

Ki (NET) [nM]	SMILES	Ki (DAT) [nM]	Ki (5-HT2A) [nM]	Ki (5-HT1A) [nM]	Ki (SERT) [nM]
71.5	FCCCOCC1CNCCN1c1nccc2ccccc12 (racemic) [(±)-37]				
16.2	c1ccc(CC2CNCCN2c2nccc3ccccc23)cc1 (racemic) [Compound 9, (±)-1-[2′-(Benzyl)piperazin-1′-yl]isoquinoline]				
14.2	COCC1CNCCN1c1nc(Cl)cc2ccccc12 (racemic) [Compound 17, (±)-3-Chloro-1-[2′-(methoxymethyl)piperazin-1′-yl]isoquinoline]				

The next lines start with the molecule.

SMILES	Ki (NET) [nM]	Ki (DAT) [nM]	Ki (5-HT2A) [nM]	Ki (5-HT1A) [nM]	Ki (SERT) [nM]
FCCCOC[C@@H]1CNCCN1c1nccc2ccccc12 [(S)-37, (S)-1-[2′-[(3-fluoropropoxy)methyl]piperazin-1′-yl]isoquinoline]	6.71				
COCC1CNCCN1c1nccc2ccccc12 (racemic) [(±)-14, (±)-1-[2′-(Methoxymethyl)piperazin-1′-yl] isoquinoline]	4.14	1570	> 10000	> 10000	1800
